Laboratory results: patent publication US10167283B2, “β-lactamase inhibitors and uses thereof” (priority 2015, dated 2019)
Structures can show the parent of a compound that is named as a salt. Where two headings read alike, the source gives them in different places.

Legend:
OXA-10 = molecular target: T1, OXA-10 (Pseudomonas aeruginosa, UniProt P14489); experiment: β-lactamase inhibition, Nitrocefin hydrolysis; format: biochemical; settings: Experiment 3; enzyme 10 nM, Nitrocefin 0.1 mM; read-out: IC50 Type D OXA-10
T1 construct: purchased
T1 sequence (P14489 20-266, species assumed): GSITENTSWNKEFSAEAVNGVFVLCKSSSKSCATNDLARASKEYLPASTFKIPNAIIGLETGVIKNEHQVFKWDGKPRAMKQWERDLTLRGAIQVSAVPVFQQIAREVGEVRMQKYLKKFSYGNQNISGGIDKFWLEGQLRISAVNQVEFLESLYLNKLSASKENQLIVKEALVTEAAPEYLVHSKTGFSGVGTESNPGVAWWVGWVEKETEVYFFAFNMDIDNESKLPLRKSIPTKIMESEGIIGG
Description: (§1) Nitrocefin, a kind of cephalosporin antibiotics, is sensitive to most of β-lactamases, and changes in color after being hydrolyzed. The hydrolysis rate of Nitrocefin was measured by real-time recording corresponding absorbance of reaction system. β-Lactamase inhibitors could inhibit hydrolysis of the enzymes to Nitrocefin, and reduce hydrolysis rate. By measuring reaction rates in the same reaction system under different inhibitor concentrations, the IC50 (half maximal inhibitory concentration) values of inhibitors were calculated.
(§2) Nitrocefin was dissolved in DMSO to form a solution with concentration of 2 mM, which was sub-packaged and stored at −20° C. The concentration of purchased β-lactamases mother liquor was 1 mg/mL, and the mother liquor was dissolved in 50% glycerol. A part of mother liquor was taken and diluted by 1000 times in reaction solution, sub-packaged and stored at ˜20° C.
(§3) The compounds to be tested were dissolved in DMSO to form a mother liquor with concentration of 10 mM. If not used that day, the mother liquor was stored at −20° C. Its test final concentrations were: 100 μM, 25 μM, 6.25 μM, 1.563 μM, 390.6 nM, 97.66 nM, 24.41 nM, 6.10 nM, 1.53 nM, 0.381 nM, 0.095 nM.

[1] = test system: Klebsiella oxytoca ATCC-51983 (SHV-5); experiment: In vitro antibacterial activity, agar dilution MIC; format: cell-based; settings: ATCC51983; Table 2; ATCC-51983 Klebsiella oxytoca, SHV-5; read-out: MIC
In short: (§4)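 Minimal inhibitory concentration in μg/mL, agar dilution method, CLSI M100-S23 (2013) standard.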

[2] = test system: Klebsiella pneumoniae BAA-2146 (NDM-1); experiment: In vitro antibacterial activity, agar dilution MIC; format: cell-based; settings: NDM-1, read-out: MIC
In short: as §4

[3] = test system: Escherichia coli BAA-2523 (OXA-48); experiment: In vitro antibacterial activity, agar dilution MIC; format: cell-based; settings: OXA-48, read-out: MIC
In short: as §4

[4] = test system: Enterobacter cloacae BAA-2341 (KPC); experiment: In vitro antibacterial activity, agar dilution MIC; format: cell-based; settings: BAA2341; Table 2; BAA-2341 Enterobacter cloacae, KPC; read-out: MIC
In short: as §4

[5] = test system: Enterobacter hormaechei BAA-2082 (KPC); experiment: In vitro antibacterial activity, agar dilution MIC; format: cell-based; settings: BAA2082; Table 2; BAA-2082 Enterobacter hormaechei, KPC; read-out: MIC
In short: as §4

[6] = test system: Klebsiella pneumoniae BAA-2524 (OXA-48); experiment: In vitro antibacterial activity, agar dilution MIC; format: cell-based; settings: BAA2524; Table 2; BAA-2524 Klebsiella pneumoniae, OXA-48; read-out: MIC
In short: as §4

[7] = test system: Escherichia coli BAA-196 (TEM-10); experiment: In vitro antibacterial activity, agar dilution MIC; format: cell-based; settings: TEM-10, read-out: MIC
In short: as §4

[8] = test system: Escherichia coli BAA-2452 (NDM-1); experiment: In vitro antibacterial activity, agar dilution MIC; format: cell-based; settings: NDM-1, read-out: MIC
In short: as §4

[9] = test system: Klebsiella pneumoniae BAA-1900 (KPC); experiment: In vitro antibacterial activity, agar dilution MIC; format: cell-based; settings: KPC, read-out: MIC
In short: as §4

KPC-2 = molecular target: T2, KPC-2 (Klebsiella pneumoniae, UniProt Q9F663); experiment: β-lactamase inhibition, Nitrocefin hydrolysis; format: biochemical; settings: Nitrocefin 0.1 mM
T2 construct: purchased
T2 sequence (Q9F663 25-293, looked up, species assumed): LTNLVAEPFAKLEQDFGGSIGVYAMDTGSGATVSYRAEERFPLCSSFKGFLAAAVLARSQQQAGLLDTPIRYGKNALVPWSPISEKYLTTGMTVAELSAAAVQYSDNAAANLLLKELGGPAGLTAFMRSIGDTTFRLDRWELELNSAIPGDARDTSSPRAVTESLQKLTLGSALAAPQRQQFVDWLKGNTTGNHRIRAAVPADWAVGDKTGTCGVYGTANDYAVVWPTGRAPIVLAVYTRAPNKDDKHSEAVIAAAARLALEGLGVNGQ
Description: as §1, §2, §3

TEM-1 = molecular target: T3, TEM-1 (Escherichia coli, UniProt P62593); experiment: β-lactamase inhibition, Nitrocefin hydrolysis; format: biochemical; settings: Nitrocefin 0.1 mM
T3 construct: purchased
T3 sequence (P62593 24-286 limits assumed): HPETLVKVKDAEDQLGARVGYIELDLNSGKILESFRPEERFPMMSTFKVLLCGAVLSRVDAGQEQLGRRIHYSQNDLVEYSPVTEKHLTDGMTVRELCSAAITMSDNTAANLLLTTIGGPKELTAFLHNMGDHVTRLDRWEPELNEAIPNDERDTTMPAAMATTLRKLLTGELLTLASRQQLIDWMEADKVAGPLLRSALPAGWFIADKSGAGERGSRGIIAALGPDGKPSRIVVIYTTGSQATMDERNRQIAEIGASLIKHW
Description: as §1, §2, §3

CTX-M-1 = molecular target: T4, CTX-M-1 (Escherichia coli, UniProt P28585); experiment: β-lactamase inhibition, Nitrocefin hydrolysis; format: biochemical; settings: Experiment 2; enzyme 0.2 nM, Nitrocefin 0.1 mM
T4 construct: purchased
T4 sequence (P28585 29-291): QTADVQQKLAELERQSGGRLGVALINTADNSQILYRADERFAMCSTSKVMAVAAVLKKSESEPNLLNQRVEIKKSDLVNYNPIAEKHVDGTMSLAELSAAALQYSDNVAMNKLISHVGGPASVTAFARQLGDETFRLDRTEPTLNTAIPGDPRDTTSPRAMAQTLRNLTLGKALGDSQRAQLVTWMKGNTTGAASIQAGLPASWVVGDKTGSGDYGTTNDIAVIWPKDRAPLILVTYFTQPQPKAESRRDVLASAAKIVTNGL
Description: as §1, §2, §3

[10] = cited from earlier work
[11] = BAA2146, Table 2, BAA-2146 Klebsiella pneumoniae
[12] = BAA2523, Table 2, BAA-2523 Escherichia coli
[13] = BAA196, Table 2, BAA-196 Escherichia coli
[14] = BAA2452, Table 2, BAA-2452 Escherichia coli
[15] = BAA1900, Table 2, BAA-1900 Klebsiella pneumoniae

NC(=O)[C@@H]1CC[C@@H]2CN1C(=O)N2OS(=O)(=O)O [AVI sodium salt, Avibactam, reference compound]
IC50 (OXA-10): 25900 nM
MIC [1]: > 8 µg/mL
MIC [2, 11]: > 8 µg/mL
MIC ([2]; BAA2146, first Table 4, BAA-2146 Klebsiella pneumoniae): 8 µg/mL
MIC [3, 12]: 8 µg/mL
MIC ([3]; BAA2523, first Table 4, BAA-2523 Escherichia coli): 16 µg/mL
MIC [4]: > 8 µg/mL
MIC [5]: > 8 µg/mL
MIC [6]: > 8 µg/mL
MIC [7, 13]: > 8 µg/mL
MIC ([7]; BAA196, first Table 4, BAA-196 Escherichia coli): 16 µg/mL
MIC [8, 14]: > 8 µg/mL
MIC ([8]; BAA2452, first Table 4, BAA-2452 Escherichia coli): 16 µg/mL
MIC [9, 15]: > 8 µg/mL
MIC ([9]; BAA1900, first Table 4, BAA-1900 Klebsiella pneumoniae): 16 µg/mL

O=C(NC1CC2(CNC2)C1)[C@@H]1CC[C@@H]2CN1C(=O)N2OS(=O)(=O)O [Compound 2, (2S,5R)-2-((2-azaspiro[3.3]heptan-6-yl)carbamoyl)-7-oxo-1,6-diazabicyclo[3.2.1]octan-6-yl hydrogen sulfate]
IC50 (KPC-2; Experiment 1, read-out: IC50 Type A KPC-2): 61.1 nM
IC50 (KPC-2; Experiment 2, enzyme 1.28 nM, read-out: IC50 KPC-2): 34.7 nM
IC50 (TEM-1; Experiment 1, enzyme 0.25 nM, read-out: IC50 ESBLs type TEM-1): 28.5 nM
IC50 (TEM-1; Experiment 2, enzyme 1 nM, read-out: IC50 TEM-1): 15.2 nM
IC50 (CTX-M-1): 42.3 nM
IC50 (OXA-10): 12200 nM
MIC [1]: 2 µg/mL
MIC [2, 11]: 2 µg/mL
MIC [3, 12]: 1 µg/mL
MIC [4]: 2 µg/mL
MIC [5]: 2 µg/mL
MIC [6]: 2 µg/mL
MIC [7, 13]: 1 µg/mL
MIC [8, 14]: 1 µg/mL
MIC [9, 15]: 1 µg/mL

O=C(NC1CCNCC1)[C@@H]1CC[C@@H]2CN1C(=O)N2OS(=O)(=O)O [MK-7655, reference compound]
T1/2 in clinic [10]: 1.7 h
MIC [1]: > 16 µg/mL
MIC [2, 11]: > 16 µg/mL
MIC [3, 12]: > 16 µg/mL
MIC [4]: > 16 µg/mL
MIC [5]: > 16 µg/mL
MIC [6]: > 16 µg/mL
MIC [7, 13]: > 16 µg/mL
MIC [8, 14]: > 16 µg/mL
MIC [9, 15]: > 16 µg/mL
